Test results taken from US8252774B2, “5-azaindole bisphosphonates” (Isis Innovation Ltd., priority 2008, dated 2012).

Experiments:
[1] = HAP affinity: chromatographic profiling on hydroxyapatite column (FPLC); type: physicochemical; conditions: phosphate buffer gradient 1 mM up to 1000 mM, pH 6.8, determined in triplicate, longer retention = higher mineral affinity
[2] = biological target: T1, human farnesyl pyrophosphate synthase (FPPS) (Homo sapiens, UniProt P14324); test: FPPS inhibition in vitro; type: biochemical; conditions: recombinant human FPPS
T1 construct: made in house
T1 sequence (P14324 67-419 limits assumed): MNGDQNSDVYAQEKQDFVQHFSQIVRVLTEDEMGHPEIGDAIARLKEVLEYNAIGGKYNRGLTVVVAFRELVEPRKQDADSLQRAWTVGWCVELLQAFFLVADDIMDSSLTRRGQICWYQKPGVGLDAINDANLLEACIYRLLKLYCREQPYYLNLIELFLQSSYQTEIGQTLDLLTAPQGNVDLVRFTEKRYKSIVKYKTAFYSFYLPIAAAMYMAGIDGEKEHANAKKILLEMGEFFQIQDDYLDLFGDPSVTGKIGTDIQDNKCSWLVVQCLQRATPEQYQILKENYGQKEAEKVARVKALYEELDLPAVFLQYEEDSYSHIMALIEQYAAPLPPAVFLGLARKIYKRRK

Row | Compound | Retention time [1] [min] | IC50 ([2]; after pre-incubation) [nM] | Ki ([2]; final inhibition constant) [nM]
1 | O=P(O)(O)C(Cc1c[nH]c2ccncc12)P(=O)(O)O [5-azaindol-3-yl-ethyl-bisphosphonic acid] | 6.3 | 6.6 | 0.6
2 | O=P(O)(O)C(O)(Cc1cnc2ccccn12)P(=O)(O)O [Minodronate] | 10.33 | – | –
3 | O=P(O)(O)C(O)(Cc1cccnc1)P(=O)(O)O [Risedronate] | 9.97 | – | –
4 | O=P(O)(O)C(O)(Cn1ccnc1)P(=O)(O)O [Zoledronate] | 12.53 | – | –
